The values below are quoted from earlier work in patent US11648207B1, “Extended release pharmaceutical composition of Clozapine” (priority 2021, dated 2023).

For series [1] the following is noted: in vivo.

`CN1CCN(C2=Nc3cc(Cl)ccc3Nc3ccccc32)CC1` [Clozapine, 8-chloro-11-(4-methyl-1-piperazinyl)-5H-dibenzo[b,e][1,4]diazepine]: the solubility in water entry was “very slightly soluble in water”. Besides, the mean terminal half-life in series [1] was 12 h.
